What is called EC50 is the concentration giving half of the maximal effect. The low end stands for a more potent agent, the high end for a less potent agent.

Common to all, as to assay type: functional, cell-based
For experiment [1], the system named is BaF3. Briefly: Antiproliferative activity against mouse BAF3 cells expressing Bcr-Abl T315I mutant.
The subject of experiment [2] is BaF3. The experiment in a line: Antiproliferative activity against mouse BAF3 cells.
The subject of experiment [3] is BaF3. The experiment in a line: Antiproliferative activity against mouse BAF3 cells expressing wild type Bcr-Abl.

For `CCN1CCN(Cc2ccc(NC(=O)c3ccc(C)c(C#Cc4coc5ccccc45)c3)cc2C(F)(F)F)CC1`, the EC50 in the experiment on BaF3 [1] worked out at 8370 nM; with BaF3 [2], 6760 nM; in the experiment on BaF3 [3], 240 nM.
Turning to `CCN1CCN(Cc2ccc(NC(=O)c3ccc(C)c(C#Cc4cncnc4)c3)cc2C(F)(F)F)CC1`, the EC50 was 990 nM with BaF3 [1], 2190 nM in the experiment with BaF3 [2] and under 1 nM in the experiment on BaF3 [3].
Turning to `CCN1CCN(Cc2ccc(NC(=O)c3ccc(C)c(C#Cc4cnc5[nH]c(C)cc5c4)c3)cc2C(F)(F)F)CC1`, the EC50 in the experiment with BaF3 [1] was 560 nM; in the experiment with BaF3 [2] it was 1000 nM; with BaF3 [3] it was 26 nM.
Regarding `CCN1CCN(Cc2ccc(NC(=O)c3ccc(C)c(C#Cc4cnccn4)c3)cc2C(F)(F)F)CC1`, the EC50 in the experiment with BaF3 [1] came to 3030 nM; in the experiment on BaF3 [2], 2490 nM; in the experiment on BaF3 [3], 6 nM.
Consider `CCN1CCN(Cc2ccc(NC(=O)c3ccc(C)c(C#Cc4cnc5[nH]cnc5c4)c3)cc2C(F)(F)F)CC1`, for which the EC50 with BaF3 [1] was 14 nM; in the experiment with BaF3 [2], 60 nM; with BaF3 [3], under 1 nM.
On the same counts, the results for `Cc1cn(-c2cc(NC(=O)c3cccc(C#Cc4cnc5[nH]ccc5c4)c3)cc(C(F)(F)F)c2)cn1` are 300 nM, 2830 nM and 15 nM.
For `CCN1CCN(Cc2ccc(NC(=O)c3ccc(C)c(C#Cc4cnc5nccnc5c4)c3)cc2C(F)(F)F)CC1`, the EC50 turned out to be 5520 nM in the experiment with BaF3 [1], 3320 nM in the experiment on BaF3 [2] and 37 nM with BaF3 [3].
Consider `CCN1CCN(Cc2ccc(NC(=O)c3ccc(C)c(C#Cc4ccc(NC(=O)C5CC5)nc4)c3)cc2C(F)(F)F)CC1`, for which the EC50 in the experiment on BaF3 [1] was 13 nM; in the experiment on BaF3 [2], 1800 nM; in the experiment with BaF3 [3] it was under 1 nM.
On to `CCN1CCN(Cc2ccc(NC(=O)c3ccc(C)c(C#Cc4ccc(C(=O)NC)nc4)c3)cc2C(F)(F)F)CC1`, for which the half-maximal effective concentration (EC50) is 2580 nM in the experiment on BaF3 [1], 3980 nM in the experiment with BaF3 [2] and 41 nM in the experiment on BaF3 [3].
In the case of `CCN1CCN(Cc2ccc(NC(=O)c3ccc(C)c(C#Cc4ccc(NC(C)=O)nc4)c3)cc2C(F)(F)F)CC1`, the figures for the EC50 with BaF3 [1], in the experiment on BaF3 [2] and in the experiment on BaF3 [3] were 10 nM, 2050 nM and under 1 nM, respectively.
`CCN1CCN(Cc2ccc(NC(=O)c3cccc(C#Cc4cnc5[nH]ccc5c4)c3)cc2C(F)(F)F)CC1`: the EC50 is 220 nM in the experiment on BaF3 [1], over 10000 nM in the experiment with BaF3 [2] and 11 nM in the experiment on BaF3 [3].
On the same counts, the results for `CCN1CCN(Cc2ccc(C(=O)Nc3ccc(C)c(C#Cc4cnc5[nH]ccc5c4)c3)cc2C(F)(F)F)CC1` are 2630 nM, 7860 nM and 70 nM.
Regarding `CCN1CCN(Cc2ccc(NC(=O)c3ccc(C)c(C#Cc4cnc(N)cn4)c3)cc2C(F)(F)F)CC1`, the figures for the EC50 with BaF3 [1], with BaF3 [2] and in the experiment on BaF3 [3] were 165 nM, 860 nM and under 1 nM, respectively.
With `Cc1cn(-c2cc(NC(=O)c3ccc(C)c(C#Cc4cnc5[nH]ccc5c4)c3)cc(C(F)(F)F)c2)cn1`, the figures for the EC50 in the experiment on BaF3 [1], with BaF3 [2] and in the experiment on BaF3 [3] were 470 nM, over 10000 nM and 37 nM, respectively.

(Values after ChEMBL document CHEMBL1177794, “Broad spectrum alkynyl inhibitors of T315I Bcr-Abl” (Bioorg Med Chem Lett, 2010).)
